Drawing on patent publication US11466024B2, “Bicylic compound acting as an inhibitor” (CHIA TAI TIANQING PHARMACEUTICAL GROUP CO., LTD., priority 2017, dated 2022), this text covers inhibition for 1 compound.

The data set addresses hERG potassium channel (Homo sapiens, UniProt Q12809). Put plainly: in vitro. The following applies: human. The protocol:
CHO-hERG cells (from Shanghai Institute of Materia Medica, Chinese Academy of Sciences) were cultured in a 175 cm^2 culture flask. When the cell density reached 60% to 80%, the culture medium was removed, the cells were washed once with 7 mL of PBS, and then 3 mL of Detachin was added for cell detachment. After complete cell detachment, 7 mL of culture medium were added for neutralization, the mixture was then centrifuged, the supernatant was aspirated, and another 5 mL of culture medium was added for re-suspension, so as to ensure that the cell density was 2×10^6/mL to 5×10^6/mL.
The single-cell giga-seal and the formation of whole-cell mode were both completed automatically by a Q patch instrument. After a whole-cell recording mode was achieved, the cells were clamped at −80 mV, exposed to a front voltage of −50 mV for 50 ms prior to a depolarizing stimulus (5 s, +40 mV), and then repolarized to −50 mV for 5 s, followed by a recovery to −80 mV. This voltage stimulation was applied every 15 s and recorded for 2 minutes, and the extracellular fluid was then administered, followed by a record lasting for 5 minutes. Thereafter, the administration process was started. Starting from the lowest test concentration, the compounds were administered at each test concentration and the process lasted for 2.5 minutes. […] At least 3 cells (n≥3) were tested at each concentration.
20 mM stock solution of the compound was diluted with the extracellular fluid, and 5 μL of the 20 mM stock solution of the compound was taken, added to 2495 μL of the extracellular fluid, and diluted by 500 times to 40 μM. Thereafter, the resulting mixture was serially and successively diluted by 3 times in an extracellular fluid containing 0.2% DMSO, so as to obtain a final concentration to be tested.
The experimental data was analyzed by XLFit software.

The structures appear in SMILES notation.

hERG potassium channel, sequence (Q12809 whole entry): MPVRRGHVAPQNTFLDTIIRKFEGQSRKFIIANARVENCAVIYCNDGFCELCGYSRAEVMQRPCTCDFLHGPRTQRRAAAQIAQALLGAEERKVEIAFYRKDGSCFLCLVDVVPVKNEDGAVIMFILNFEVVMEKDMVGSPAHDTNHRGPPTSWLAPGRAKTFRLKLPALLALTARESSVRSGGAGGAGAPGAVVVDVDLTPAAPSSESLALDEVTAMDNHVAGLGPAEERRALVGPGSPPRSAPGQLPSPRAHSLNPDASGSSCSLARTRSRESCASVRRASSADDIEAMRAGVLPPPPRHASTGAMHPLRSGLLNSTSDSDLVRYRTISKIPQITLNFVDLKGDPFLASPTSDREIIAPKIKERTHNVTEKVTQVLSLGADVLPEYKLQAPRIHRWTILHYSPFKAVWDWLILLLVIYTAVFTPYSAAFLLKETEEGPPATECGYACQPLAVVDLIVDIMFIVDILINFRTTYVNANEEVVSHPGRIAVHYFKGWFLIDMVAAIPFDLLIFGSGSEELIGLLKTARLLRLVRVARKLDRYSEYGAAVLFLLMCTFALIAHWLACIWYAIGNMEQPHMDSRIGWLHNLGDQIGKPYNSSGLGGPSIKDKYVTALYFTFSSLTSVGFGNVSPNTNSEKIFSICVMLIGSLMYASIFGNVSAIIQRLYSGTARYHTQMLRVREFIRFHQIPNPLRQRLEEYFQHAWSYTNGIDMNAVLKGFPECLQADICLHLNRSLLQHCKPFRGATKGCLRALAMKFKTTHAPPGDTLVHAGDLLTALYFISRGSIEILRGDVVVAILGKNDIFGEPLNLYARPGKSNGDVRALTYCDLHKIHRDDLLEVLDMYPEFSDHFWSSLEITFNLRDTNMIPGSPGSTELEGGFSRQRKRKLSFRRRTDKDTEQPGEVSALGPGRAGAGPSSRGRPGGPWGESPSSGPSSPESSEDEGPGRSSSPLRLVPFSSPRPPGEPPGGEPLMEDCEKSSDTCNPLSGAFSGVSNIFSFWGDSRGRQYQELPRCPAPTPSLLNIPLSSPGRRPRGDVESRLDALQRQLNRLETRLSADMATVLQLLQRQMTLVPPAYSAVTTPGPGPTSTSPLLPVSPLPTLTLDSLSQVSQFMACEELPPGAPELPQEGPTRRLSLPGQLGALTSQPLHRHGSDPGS

As usually defined, the inhibition is the drop in the measured response relative to a control, in per cent. Consider `COc1cc(N)c(Cl)cc1C(=O)NC1CCN(CCCOc2ccc(F)cc2)CC1OC` (stereo not shown) [Cisapride, reference compound], for which the inhibition at 2.5 min, 40 μM came out at 89.6%.
